Test results from ChEMBL document CHEMBL4627358, “A hypoxia-activated antibacterial prodrug” (Bioorg Med Chem Lett, 2020).
≈ marks a conversion by molar mass, not a printed value.

Assays:
Staphylococcus aureus = assay: Antibacterial activity against Staphylococcus aureus ATCC 49775 assessed as bacterial growth inhibition measured after 16 to 20 hrs by CLSI protocol based broth microdilution method; format: functional
Escherichia coli = assay: Antibacterial activity against Escherichia coli K-12 assessed as bacterial growth inhibition measured after 16 to 20 hrs by CLSI protocol based broth microdilution method; format: functional

`CCCCCCCCN(Cc1c2ccccc2c(Cl)c2ccccc12)C(=O)C(CCCCNC(=O)OCc1ccc([N+](=O)[O-])cc1)NC(=O)OCc1ccc([N+](=O)[O-])cc1` (centres undefined) was tested, and the MIC (Staphylococcus aureus) was > 256 µg/mL and the MIC (Escherichia coli) was > 256 µg/mL.
With `CCCCCCCCN(Cc1c2ccccc2c(Cl)c2ccccc12)C(=O)C(N)CCCCN` (centres undefined) the MIC (Staphylococcus aureus) was 2 µg/mL (≈ 4.15 µM) and the MIC (Escherichia coli) was 4 µg/mL (≈ 8.3 µM).
